Results reported in patent US5814612A, “Retinol derivatives and uses thereof” (priority 1992, dated 1998).

Columns and labels:
[1] = test system: immediate early genes in fibroblasts; assay: Expression of immediate early genes in fibroblasts; format: cell-based; conditions: work to be published elsewhere
B lymphocytes = conditions: cited from earlier work
[2] = Reversion of 14HRR to retinal; format: in vitro ADME
CD4^+ T lymphocytes = assay: Proliferation of anti-CD3 activated CD4+ T lymphocytes; format: cell-based, BALB/c mouse
From the text: Growth curves of lymph node T cells depleted of antigen-presenting cells (FIG. 17A) with and without 10^-6 M retinol at 2×10^5 and 5×10^4 cells/well. (FIG. 17B) Dose-responses elicited by different retinoids in cultures of lymph node T cells depleted of antigen-presenting cells. Also shown are the growth curves of CD4^+ (FIG. 17C) and CD8^+ T lymphocytes (FIG. 17D) in the presence of either retinol, 14HRR, human serum or in their absence.
T lymphocytes, purified as described, 5×10^4 /well, were activated with immobilized anti-CD3 antibody in ITLB medium. The indicated amounts of retinoids or human serum were added at initiation of cultures. […] 14HRR was added every 12 hours. DNA synthesis was measured by a 4 hour pulse with tritiated thymidine. SDs were ≤17%.
Mature T cells were obtained from pooled intestinal, axillary, inguinal and submandibular lymph nodes of 4 to 10-week-old BALB/c mice. To fractionate cells into CD4 and CD8 subsets and at the same time remove APC, a combination of adherence and complement lysis was used as follows:
The cell suspension in a volume of 2 ml was applied to a nylon wool column (40) (0.6 g of washed nylon fibers in the barrel of a 10 ml syringe) and incubated at 37° C. for 40 min. […] The success of the enrichment procedures was monitored cytofluorimetrically using FITC-conjugated anti-CD8 and PE-conjugated anti-CD4. […]

SK--N--SH = assay: Retinol metabolism, SK--N--SH; format: in vitro ADME, human
Description: (§1) Legend: 2.5×10^6 cells were grown overnight in 5 ml RPMI/10% FBS. The FBS was preincubated at room temperature with 14.4 uCi [^3 H] retinol (NEN) for 4h. The cell pellet was washed twice with PBS. The retinoid were extracted according to MClean et al. 90 and separated on an analytical c18 reverse phase column according to FIG. 7. The DPM were determined using an on-line scintillation counter.

ERLD = assay: Retinol metabolism, ERLD; format: in vitro ADME
Description: as §1

SK3886 = assay: Retinol metabolism, SK3886; format: in vitro ADME
Description: as §1

SKL3 = assay: Retinol metabolism, SKL3; format: in vitro ADME, human
Description: as §1

thymocytes = assay: Viable and blast cell counts of thymocytes (trypan blue); format: cell-based, BALB/c mouse
Description: FIG. 14C: BALB/c thymocytes (3×10^6 /ml) were activated with anti-CD3e mAb as FIG. 1A. The total number of viable cells was determined by counting trypan blue-excluding cells, and those of blast cells by counting viable large cells in six replicate wells. Because of the relatively low cell density required in the culture (see FIG. 14A), the numbers reported for blast cells are best estimates.
Thymuses of 3 to 6-week-old BALB/c mice were teased in serum-free RPMI medium supplemented with 1% BSA, 10^-6 M linoleic acid and antibiotics. Depletion of accessory cells was achieved by two cycles of complement-dependent lysis with a mixture of anti-IA^d (5 μg/ml) and anti-IE^d (1:500 diluted ascites fluid). Briefly, cells were incubated on ice for 30 minutes with Ia antibodies, spun down, resuspended in 1:40 diluted rabbit complement, and incubated at 37° C. for 45 minutes. Incubations and two subsequent washes were carried out with RPMI medium containing 1% BSA. Cell viability was evaluated by trypan blue dye exclusion. To determine the extent of depletion of accessory cells, samples were stained with FITC-conjugated anti-Fc receptor antibody and analyzed by flow cytometry on a FACScan instrument (Becton Dickinson). No FcR-bearing cells were detected by this procedure.

CC(C=CC=C(C)C(O)CO)=CC=C1C(C)=CCCC1(C)C (stereo not drawn) [14HRR, 14-hydroxy-4,14-retro-retinol]
expression of immediate early genes [1]: facilitates the expression of immediate early genes in fibroblasts | difference in active concentration, 14HRR vs retinal (B lymphocytes): 40 fold | support of B cell proliferation / response (B lymphocytes): capable of supporting the proliferation of B cells in the absence of an external supply of retinal | active concentration (B lymphocytes; previous analyses with B lymphocytes (ref. 33)): 50 nM | reversion to retinal [2]: does not revert to retinal | response of CD4+ subset to anti-CD3 (CD4^+ T lymphocytes): responded to the activating signal

CC1=C(/C=C/C(C)=C/C=C/C(C)=C/CO)C(C)(C)CCC1 [retinol, all-trans retinol]
Ester (% of taken up retinol) (SK--N--SH): 25% | P3 (% of taken up retinol) (SK--N--SH): 0.9% | Retinol (% of taken up retinol) (SK--N--SH): 56% | Total cts. (SK--N--SH): 2.0 × 10^5 cts. | Ester (% of taken up retinol) (ERLD): 20% | P3 (% of taken up retinol) (ERLD): 9% | Total cts. (ERLD): 2.8 × 10^5 cts. | Ester (% of taken up retinol) (SK3886): 2% | P3 (% of taken up retinol) (SK3886): 3% | Total cts. (SK3886): 4.7 × 10^5 cts. | Ester (% of taken up retinol) (SKL3): 24% | P3 (% of taken up retinol) (SKL3): 2% | Total cts. (SKL3): 1.6 × 10^5 cts. | T cell activation / blast transformation by agent alone (thymocytes; alone): no discernible T cell activation | viability of thymocyte cultures (thymocytes; retinol by itself): maintain a higher state of viability than anti-CD3e "only" stimulation
